Data as given in patent publication US20240269139A1, “COMPOUNDS FOR TARGETED PROTEIN DEGRADATION OF KINASES” (DANA-FARBER CANCER INSTITUTE, INC., priority 2020, published 2024).
Where two headings read alike, the source gives them in different places.

Assays:
[1] = molecular target: T1, extended human kinome (kinase-like proteins) (Homo sapiens, UniProt P54886); assay: Whole cell quantitative proteomics: extended kinome hits; conditions: Accession P54886; experiment wp160; 1 hr
T1 sequence (P54886 1-795): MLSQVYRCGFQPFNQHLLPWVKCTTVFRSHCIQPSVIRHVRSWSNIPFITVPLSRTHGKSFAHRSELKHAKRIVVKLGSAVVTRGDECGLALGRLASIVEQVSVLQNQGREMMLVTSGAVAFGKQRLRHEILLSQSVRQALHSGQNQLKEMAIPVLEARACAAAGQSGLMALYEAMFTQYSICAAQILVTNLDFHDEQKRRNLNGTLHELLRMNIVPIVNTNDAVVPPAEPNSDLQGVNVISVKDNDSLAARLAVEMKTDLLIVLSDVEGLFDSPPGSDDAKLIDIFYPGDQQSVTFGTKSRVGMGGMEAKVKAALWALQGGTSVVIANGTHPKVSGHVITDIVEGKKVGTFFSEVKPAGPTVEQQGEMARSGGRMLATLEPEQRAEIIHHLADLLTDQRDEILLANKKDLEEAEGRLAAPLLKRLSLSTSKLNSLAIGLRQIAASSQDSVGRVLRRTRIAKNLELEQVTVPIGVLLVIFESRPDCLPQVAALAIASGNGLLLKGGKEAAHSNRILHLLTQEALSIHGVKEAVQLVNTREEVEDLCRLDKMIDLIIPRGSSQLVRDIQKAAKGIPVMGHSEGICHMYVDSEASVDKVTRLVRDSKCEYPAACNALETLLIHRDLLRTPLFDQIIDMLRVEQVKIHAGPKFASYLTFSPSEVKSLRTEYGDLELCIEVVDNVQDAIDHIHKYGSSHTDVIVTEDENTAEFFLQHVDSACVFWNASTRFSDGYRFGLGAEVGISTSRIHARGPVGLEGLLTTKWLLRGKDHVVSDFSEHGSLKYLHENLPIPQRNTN

[2] = molecular target: T2, protein kinases (human kinome) (Homo sapiens, UniProt Q9NYY8); type: cell-based; conditions: Experiment wp016, 1 uM; direction down
T2 sequence (Q9NYY8 1-710): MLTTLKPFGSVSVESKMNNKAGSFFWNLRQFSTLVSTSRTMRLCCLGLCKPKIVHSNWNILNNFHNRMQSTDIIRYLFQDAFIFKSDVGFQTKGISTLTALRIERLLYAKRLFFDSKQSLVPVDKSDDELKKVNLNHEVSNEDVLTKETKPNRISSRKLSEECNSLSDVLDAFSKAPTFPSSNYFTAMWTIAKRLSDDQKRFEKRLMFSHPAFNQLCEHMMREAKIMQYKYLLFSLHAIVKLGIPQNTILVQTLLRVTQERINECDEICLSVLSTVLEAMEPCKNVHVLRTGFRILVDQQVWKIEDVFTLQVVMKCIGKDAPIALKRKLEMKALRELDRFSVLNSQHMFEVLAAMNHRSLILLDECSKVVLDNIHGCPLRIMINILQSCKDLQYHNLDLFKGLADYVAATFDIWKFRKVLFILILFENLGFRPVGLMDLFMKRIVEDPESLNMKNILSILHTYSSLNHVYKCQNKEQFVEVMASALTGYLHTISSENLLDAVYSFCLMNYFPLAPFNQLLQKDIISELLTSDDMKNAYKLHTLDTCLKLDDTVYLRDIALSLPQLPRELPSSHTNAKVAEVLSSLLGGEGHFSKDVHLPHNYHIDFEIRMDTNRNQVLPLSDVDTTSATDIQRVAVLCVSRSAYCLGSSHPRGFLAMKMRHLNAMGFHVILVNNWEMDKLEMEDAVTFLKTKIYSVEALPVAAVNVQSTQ

[3] = molecular target: protein kinases (human kinome) (Homo sapiens, UniProt P53671); type: cell-based; conditions: for logFC LIMK2: LIMK2 (P53671), down; for logFC of LIMK2: LIMK2 P53671
[4] = molecular target: protein kinases (human kinome) (Homo sapiens, UniProt P51451); type: cell-based; conditions: for logFC BLK: BLK (P51451), direction down; for logFC of BLK: BLK P51451, experiment wp016; for logFC of BLK (P51451): down
[5] = test system: protein kinases (human kinome); type: cell-based; conditions: for logFC ABL1: ABL1 (P00519-2); for logFC of SRC: Accession P12931-2; for logFC CSNK1D: Accession P48730-2; for logFC CDK12: Accession Q9NYV4-2
[6] = AURKB Q96GD4-5, experiment wp103
[7] = AURKB Q96GD4-5, experiment wp105
[8] = AURKB Q96GD4-5, experiment wp107
[9] = AURKB Q96GD4-5, experiment wp133, 1 hr
[10] = AURKB Q96GD4-5, experiment wp133, 2 hr
[11] = AURKB Q96GD4-5, experiment wp133, 4 hr

protein kinases (human kinome) (Homo sapiens, UniProt P53671), sequence (P53671 whole entry): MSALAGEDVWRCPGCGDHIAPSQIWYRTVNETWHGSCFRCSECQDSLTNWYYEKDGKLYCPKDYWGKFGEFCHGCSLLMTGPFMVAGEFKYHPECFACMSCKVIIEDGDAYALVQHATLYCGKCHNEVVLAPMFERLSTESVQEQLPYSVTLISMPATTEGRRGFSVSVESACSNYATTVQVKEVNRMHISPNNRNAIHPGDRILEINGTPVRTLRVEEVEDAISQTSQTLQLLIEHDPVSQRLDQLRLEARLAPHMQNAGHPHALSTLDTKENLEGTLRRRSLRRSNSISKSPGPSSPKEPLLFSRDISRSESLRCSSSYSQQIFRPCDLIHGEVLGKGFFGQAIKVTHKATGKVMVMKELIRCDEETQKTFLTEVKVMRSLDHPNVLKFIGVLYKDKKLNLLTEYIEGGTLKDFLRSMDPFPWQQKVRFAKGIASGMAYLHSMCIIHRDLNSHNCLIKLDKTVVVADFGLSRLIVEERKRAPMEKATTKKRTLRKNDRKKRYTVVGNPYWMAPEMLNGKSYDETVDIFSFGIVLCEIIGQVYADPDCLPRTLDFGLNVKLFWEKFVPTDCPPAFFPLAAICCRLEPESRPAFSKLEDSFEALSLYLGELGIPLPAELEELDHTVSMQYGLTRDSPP
protein kinases (human kinome) (Homo sapiens, UniProt P51451), sequence (P51451 whole entry): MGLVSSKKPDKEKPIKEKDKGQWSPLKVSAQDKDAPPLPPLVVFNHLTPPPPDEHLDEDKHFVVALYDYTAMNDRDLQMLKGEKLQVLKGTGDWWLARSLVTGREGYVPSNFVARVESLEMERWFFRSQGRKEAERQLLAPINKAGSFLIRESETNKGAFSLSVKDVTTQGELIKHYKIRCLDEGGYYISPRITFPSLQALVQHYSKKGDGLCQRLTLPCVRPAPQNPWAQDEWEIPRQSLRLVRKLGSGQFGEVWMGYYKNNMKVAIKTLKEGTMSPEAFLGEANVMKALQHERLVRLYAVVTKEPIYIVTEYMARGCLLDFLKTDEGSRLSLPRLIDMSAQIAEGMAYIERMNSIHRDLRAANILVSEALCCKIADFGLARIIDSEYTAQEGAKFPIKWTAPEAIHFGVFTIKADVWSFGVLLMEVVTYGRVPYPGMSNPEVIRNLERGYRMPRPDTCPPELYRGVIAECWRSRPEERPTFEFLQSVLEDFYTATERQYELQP

CC(C)S(=O)(=O)c1ccccc1Nc1nc(Nc2ccc(N3CCN(CCOCCNC(=O)CNc4cccc5c4C(=O)N(C4CCC(=O)NC4=O)C5=O)CC3)cc2)ncc1Cl (centres unmarked) [SK.3.91]
logFC ALDH18A1 [1]: −0.9684
logFC FASTKD2 (Q9NYY8) [2]: −0.4507
logFC LIMK2 ([3]; experiment wp016, 1 uM): −1.441
logFC LIMK2 ([3]; experiment wp016): −1.061
logFC LIMK2 ([3]; experiment wp103): −1.431
logFC LIMK2 ([3]; experiment wp107): −1.878
logFC LIMK2 ([3]; experiment wp114): −0.8414
logFC LIMK2 ([3]; experiment wp133, 2 hr): −0.7575
logFC LIMK2 ([3]; experiment wp133, 4 hr): −1.342
logFC LIMK2 ([3]; experiment wp172): −0.8984
logFC of LIMK2 ([3]; experiment wp016): −1.061
logFC of LIMK2 ([3]; experiment wp016, 1 uM): −1.441
logFC of LIMK2 ([3]; experiment wp103): −1.431
logFC of LIMK2 ([3]; experiment wp107): −1.878
logFC of LIMK2 ([3]; experiment wp114): −0.8414
logFC of LIMK2 ([3]; experiment wp133, 2 hr): −0.7575
logFC of LIMK2 ([3]; experiment wp133, 4 hr): −1.342
logFC of LIMK2 ([3]; experiment wp172): −0.8984
logFC BLK ([4]; experiment wp103): −1.625
logFC BLK ([4]; experiment wp107): −1.649
logFC BLK ([4]; experiment wp133, 1 hr): −0.3727
logFC BLK ([4]; experiment wp133, 2 hr): −0.8217
logFC BLK ([4]; experiment wp133, 4 hr): −1.49
logFC BLK ([4]; experiment wp160, 2 hr): −0.8744
logFC BLK ([4]; experiment wp160, 4 hr): −1.678
logFC of BLK [4]: −1.446
logFC of BLK ([4]; 1 uM): −1.977
logFC of BLK (P51451) ([4]; Experiment wp016, 1 uM): −1.977
logFC of BLK (P51451) ([4]; Experiment wp016): −1.446
logFC of BLK (P51451) ([4]; Experiment wp103): −1.625
logFC of BLK (P51451) ([4]; Experiment wp107): −1.649
logFC of BLK (P51451) ([4]; Experiment wp133, 1 hr): −0.3727
logFC of BLK (P51451) ([4]; Experiment wp133, 2 hr): −0.8217
logFC of BLK (P51451) ([4]; Experiment wp133, 4 hr): −1.49
logFC of BLK (P51451) ([4]; Experiment wp160, 2 hr): −0.8744
logFC of BLK (P51451) ([4]; Experiment wp160, 4 hr): −1.678
logFC ABL1 ([5]; experiment wp016, 1 uM): −0.3875
logFC ABL1 ([5]; experiment wp105): −0.333
logFC ABL1 ([5]; experiment wp107): −0.4711
logFC ABL1 ([5]; experiment wp133, 4 hr): −0.3801
logFC [5, 6]: −0.3966
logFC AURKB [5, 6]: −0.3966
logFC [5, 7]: −0.7004
logFC AURKB [5, 7]: −0.7004
logFC [5, 8]: −0.443
logFC AURKB [5, 8]: −0.443
logFC [5, 9]: −0.4923
logFC AURKB [5, 9]: −0.4923
logFC [5, 10]: −0.5333
logFC AURKB [5, 10]: −0.5333
logFC [5, 11]: −0.8007
logFC AURKB [5, 11]: −0.8007
logFC BUB1B ([5]; Accession O60566-3, experiment wp016, 1 uM, direction down): −0.4685
logFC BUB1B ([5]; Accession O60566-3, experiment wp103, direction down): −0.3983
logFC BUB1B ([5]; Accession O60566-3, experiment wp107, direction down): −0.5037
logFC BUB1B ([5]; Accession O60566-3, experiment wp133, 1 hr, direction down): −0.4083
logFC BUB1B ([5]; Accession O60566-3, experiment wp133, 2 hr, direction down): −0.4195
logFC BUB1B ([5]; Accession O60566-3, experiment wp133, 4 hr, direction down): −0.5871
logFC of SRC ([5]; experiment wp016): −0.3847
logFC of SRC ([5]; experiment wp016, 1 uM): −0.8428
logFC of SRC ([5]; experiment wp103): −0.5004
logFC of SRC ([5]; experiment wp105): −0.3464
logFC of SRC ([5]; experiment wp107): −0.7782
logFC of SRC ([5]; experiment wp133, 4 hr): −0.6408
logFC CSNK1D ([5]; experiment wp114, direction down): −0.3991
logFC CSNK1D ([5]; experiment wp160, 4 hr, direction down): −0.3373
logFC CDK12 ([5]; experiment wp107): −1.042
logFC CDK12 ([5]; experiment wp160, 2 hr): −0.4558
logFC CDK12 ([5]; experiment wp160, 4 hr): −0.8448
logFC BUB1B ([5]; BUB1B (O60566-3), experiment wp016, 1 uM): −0.4685
logFC BUB1B ([5]; BUB1B (O60566-3), experiment wp103): −0.3983
logFC BUB1B ([5]; BUB1B (O60566-3), experiment wp107): −0.5037
logFC BUB1B ([5]; BUB1B (O60566-3), experiment wp133, 1 hr): −0.4083
logFC BUB1B ([5]; BUB1B (O60566-3), experiment wp133, 2 hr): −0.4195
logFC BUB1B ([5]; BUB1B (O60566-3), experiment wp133, 4 hr): −0.5871
logFC ([5]; CDK9 (P50750-2) protein abundance, degrader vs DMSO, 1 uM, down): −1.356
logFC ([5]; CDK9 (P50750-2) protein abundance, degrader vs DMSO, 2 hr, down): −0.3971
logFC ([5]; CDK9 (P50750-2) protein abundance, degrader vs DMSO, 4 hr, down): −1.037
logFC ([5]; CDK18 (Q07002-3), experiment wp105): −1.233
logFC ([5]; CDK18 (Q07002-3), experiment wp114): −0.8295
